Laboratory results taken from ChEMBL document CHEMBL1201862, “PubChem BioAssay data set” (2004).
Activity calls are given as the source filed them.

What was measured:
[1] = target: T1, Low molecular weight phosphotyrosine protein phosphatase (Homo sapiens, UniProt P24666); type: functional; details: read-out: IC50_Mean;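 note: Dose-response confirmation assay measuring inhibition of LMPTP enzyme activity by fluorescence intensity read-out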
T1 sequence (P24666 whole entry): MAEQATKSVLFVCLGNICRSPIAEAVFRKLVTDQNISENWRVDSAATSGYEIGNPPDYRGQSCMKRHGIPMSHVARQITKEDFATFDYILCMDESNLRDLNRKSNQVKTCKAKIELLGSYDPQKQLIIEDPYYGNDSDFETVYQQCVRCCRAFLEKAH

[2] = tested on: HEK293; test: EBV LMP1 TES2 canonical NF-kB signalling blockers – cell-based, HEK293, luciferase, cherry-pick, dose response (AID 588343); type: functional; details: Homo sapiens
[3] = tested on: Streptococcus sp. 'group A'; test: Streptococcus pyogenes SK(-)GAS viability under kanamycin – luminescence, BacTiterGlo, confirmation, counter-screen for streptokinase expression inhibitor project, dose response (AID 1900); type: functional, organism-based
[4] = tested on: Streptococcus; test: GAS UMAA2166 growth inhibition – luminescence, BacTiterGlo, counter-screen for streptokinase expression inhibitor project, dose response (AID 1915); type: functional, organism-based;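 note: potency for reduction of bacterial viability or growth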
[5] = target: T2, CAAX prenyl protease 2 (Homo sapiens, UniProt Q9Y256); test: inhibition of Ras-converting CAAX protease Rce1 – biochemical, yeast membranes, quenched-peptide fluorescence, cherry-pick, dose response (AID 588849)
T2 sequence (Q9Y256 whole entry): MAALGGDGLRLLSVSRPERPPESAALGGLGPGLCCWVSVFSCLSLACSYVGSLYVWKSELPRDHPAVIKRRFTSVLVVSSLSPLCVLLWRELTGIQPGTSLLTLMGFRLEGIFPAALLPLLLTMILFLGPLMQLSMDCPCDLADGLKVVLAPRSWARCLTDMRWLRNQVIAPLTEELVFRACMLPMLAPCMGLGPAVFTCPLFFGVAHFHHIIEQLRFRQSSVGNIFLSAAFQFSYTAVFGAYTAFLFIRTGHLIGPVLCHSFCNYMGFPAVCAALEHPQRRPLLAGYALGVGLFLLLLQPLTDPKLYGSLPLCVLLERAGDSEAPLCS

[6] = target: Phospholipase A2 (Homo sapiens, UniProt P04054); type: functional;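 note: confirmatory dose-response counterscreen on phospholipase A2, testing hits that came from an ultra-high-throughput screen for ATG4B inhibitors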
Sequence of Phospholipase A2 (P04054 whole entry): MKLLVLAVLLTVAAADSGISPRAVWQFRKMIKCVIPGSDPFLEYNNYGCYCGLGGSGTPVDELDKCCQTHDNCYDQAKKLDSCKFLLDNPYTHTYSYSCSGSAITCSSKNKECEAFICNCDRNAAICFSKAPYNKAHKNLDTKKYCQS

[7] = target: Voltage-dependent T-type calcium channel subunit alpha-1H (Homo sapiens, UniProt O95180); type: functional;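 note: channel activity triggered by adding a high calcium stimulation buffer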
[8] = target: T3, Cysteine protease ATG4B (Homo sapiens, UniProt Q9Y4P1); type: functional;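 note: Fluorescence-based dose-response confirmation assay measuring inhibition of ATG4B activity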
T3 sequence (Q9Y4P1 whole entry): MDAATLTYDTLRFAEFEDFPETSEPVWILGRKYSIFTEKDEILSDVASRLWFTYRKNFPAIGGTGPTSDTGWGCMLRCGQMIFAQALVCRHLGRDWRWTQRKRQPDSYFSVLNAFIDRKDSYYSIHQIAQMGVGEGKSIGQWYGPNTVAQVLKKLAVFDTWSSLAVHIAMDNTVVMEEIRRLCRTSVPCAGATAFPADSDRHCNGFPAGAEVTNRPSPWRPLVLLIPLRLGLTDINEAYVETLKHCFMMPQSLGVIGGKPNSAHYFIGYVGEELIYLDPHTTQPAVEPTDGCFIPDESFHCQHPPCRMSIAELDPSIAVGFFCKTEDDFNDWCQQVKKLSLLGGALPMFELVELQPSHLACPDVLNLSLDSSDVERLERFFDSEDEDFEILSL

[9] = target: T4, Cytochrome P450 1A2 (Homo sapiens, UniProt P05177);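 note: PubChem cytochrome P450 panel assay, CYP1A2 panel member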
T4 sequence (P05177 whole entry): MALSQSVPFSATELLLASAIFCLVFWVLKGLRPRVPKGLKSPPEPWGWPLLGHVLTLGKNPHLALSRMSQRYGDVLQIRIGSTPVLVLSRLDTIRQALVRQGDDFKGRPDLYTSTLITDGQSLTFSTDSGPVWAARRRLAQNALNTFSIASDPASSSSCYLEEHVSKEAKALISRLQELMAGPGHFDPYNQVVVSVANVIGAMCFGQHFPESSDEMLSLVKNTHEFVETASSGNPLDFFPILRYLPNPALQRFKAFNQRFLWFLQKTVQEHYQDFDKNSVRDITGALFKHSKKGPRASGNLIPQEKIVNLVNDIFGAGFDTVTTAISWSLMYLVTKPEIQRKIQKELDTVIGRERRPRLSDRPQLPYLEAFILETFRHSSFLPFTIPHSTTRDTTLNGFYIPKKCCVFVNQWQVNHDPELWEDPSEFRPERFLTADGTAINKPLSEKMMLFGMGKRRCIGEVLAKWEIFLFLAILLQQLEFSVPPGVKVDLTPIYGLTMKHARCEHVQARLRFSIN

[10] = target: Peroxisome proliferator-activated receptor gamma/Nuclear receptor coactivator 3 (Homo sapiens, UniProt P37231); type: functional;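 note: agonist potency for raising coactivator recruitment to the receptor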
[11] = target: Peroxisome proliferator-activated receptor gamma/Nuclear receptor coactivator 1 (Homo sapiens, UniProt P37231); type: functional;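 note: agonist potency as compounds enhance coactivator SRC-1 recruitment to PPARgamma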
[12] = target: Cytochrome P450 2C9 (Homo sapiens, UniProt P11712)
Sequence of Cytochrome P450 2C9 (P11712 whole entry): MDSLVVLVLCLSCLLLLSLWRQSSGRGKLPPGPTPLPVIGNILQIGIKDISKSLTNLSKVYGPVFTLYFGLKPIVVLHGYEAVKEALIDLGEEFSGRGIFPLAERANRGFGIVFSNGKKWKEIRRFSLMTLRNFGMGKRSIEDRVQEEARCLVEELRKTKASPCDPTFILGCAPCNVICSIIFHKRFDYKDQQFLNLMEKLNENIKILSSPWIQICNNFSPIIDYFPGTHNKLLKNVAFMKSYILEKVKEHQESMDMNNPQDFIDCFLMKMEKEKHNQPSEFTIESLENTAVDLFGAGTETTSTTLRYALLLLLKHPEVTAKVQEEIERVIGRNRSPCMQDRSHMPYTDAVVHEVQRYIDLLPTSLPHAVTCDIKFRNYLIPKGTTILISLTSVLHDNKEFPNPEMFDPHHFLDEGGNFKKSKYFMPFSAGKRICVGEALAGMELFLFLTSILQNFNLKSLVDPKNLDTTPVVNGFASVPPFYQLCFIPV

[13] = viability of HCT116 lacking mutant beta-catenin – cell-based, human colon tumor, dose response (AID 1045); type: functional;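 note: HCT116 colon tumor cells with beta catenin knocked out; cells exposed to compound for 60 hours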
[14] = target: Peroxisome proliferator-activated receptor gamma/Nuclear receptor coactivator 2 (Homo sapiens, UniProt P37231); type: functional;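 note: agonist potency for raising coactivator recruitment to the receptor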
[15] = viability of PTEN-deleted HCT116 cells – cell-based, HCT116 PTEN knockout, dose response (AID 1047); type: functional;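 note: HCT116 colon tumor cells with PTEN knocked out; cells exposed to compound for 60 hours before readout; potency for loss of cell viability measured by luminescence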
[16] = target: T5, Fatty acid synthase (Homo sapiens, UniProt P49327); test: inhibition of human FAS-TE enzyme activity – biochemical, kinetic fluorescence intensity, dose response (AID 624326); type: functional;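 note: rate of fluorescence rise from hydrolysis of a fluorogenic O-methyl fluorescein ester substrate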
T5 sequence (P49327 whole entry): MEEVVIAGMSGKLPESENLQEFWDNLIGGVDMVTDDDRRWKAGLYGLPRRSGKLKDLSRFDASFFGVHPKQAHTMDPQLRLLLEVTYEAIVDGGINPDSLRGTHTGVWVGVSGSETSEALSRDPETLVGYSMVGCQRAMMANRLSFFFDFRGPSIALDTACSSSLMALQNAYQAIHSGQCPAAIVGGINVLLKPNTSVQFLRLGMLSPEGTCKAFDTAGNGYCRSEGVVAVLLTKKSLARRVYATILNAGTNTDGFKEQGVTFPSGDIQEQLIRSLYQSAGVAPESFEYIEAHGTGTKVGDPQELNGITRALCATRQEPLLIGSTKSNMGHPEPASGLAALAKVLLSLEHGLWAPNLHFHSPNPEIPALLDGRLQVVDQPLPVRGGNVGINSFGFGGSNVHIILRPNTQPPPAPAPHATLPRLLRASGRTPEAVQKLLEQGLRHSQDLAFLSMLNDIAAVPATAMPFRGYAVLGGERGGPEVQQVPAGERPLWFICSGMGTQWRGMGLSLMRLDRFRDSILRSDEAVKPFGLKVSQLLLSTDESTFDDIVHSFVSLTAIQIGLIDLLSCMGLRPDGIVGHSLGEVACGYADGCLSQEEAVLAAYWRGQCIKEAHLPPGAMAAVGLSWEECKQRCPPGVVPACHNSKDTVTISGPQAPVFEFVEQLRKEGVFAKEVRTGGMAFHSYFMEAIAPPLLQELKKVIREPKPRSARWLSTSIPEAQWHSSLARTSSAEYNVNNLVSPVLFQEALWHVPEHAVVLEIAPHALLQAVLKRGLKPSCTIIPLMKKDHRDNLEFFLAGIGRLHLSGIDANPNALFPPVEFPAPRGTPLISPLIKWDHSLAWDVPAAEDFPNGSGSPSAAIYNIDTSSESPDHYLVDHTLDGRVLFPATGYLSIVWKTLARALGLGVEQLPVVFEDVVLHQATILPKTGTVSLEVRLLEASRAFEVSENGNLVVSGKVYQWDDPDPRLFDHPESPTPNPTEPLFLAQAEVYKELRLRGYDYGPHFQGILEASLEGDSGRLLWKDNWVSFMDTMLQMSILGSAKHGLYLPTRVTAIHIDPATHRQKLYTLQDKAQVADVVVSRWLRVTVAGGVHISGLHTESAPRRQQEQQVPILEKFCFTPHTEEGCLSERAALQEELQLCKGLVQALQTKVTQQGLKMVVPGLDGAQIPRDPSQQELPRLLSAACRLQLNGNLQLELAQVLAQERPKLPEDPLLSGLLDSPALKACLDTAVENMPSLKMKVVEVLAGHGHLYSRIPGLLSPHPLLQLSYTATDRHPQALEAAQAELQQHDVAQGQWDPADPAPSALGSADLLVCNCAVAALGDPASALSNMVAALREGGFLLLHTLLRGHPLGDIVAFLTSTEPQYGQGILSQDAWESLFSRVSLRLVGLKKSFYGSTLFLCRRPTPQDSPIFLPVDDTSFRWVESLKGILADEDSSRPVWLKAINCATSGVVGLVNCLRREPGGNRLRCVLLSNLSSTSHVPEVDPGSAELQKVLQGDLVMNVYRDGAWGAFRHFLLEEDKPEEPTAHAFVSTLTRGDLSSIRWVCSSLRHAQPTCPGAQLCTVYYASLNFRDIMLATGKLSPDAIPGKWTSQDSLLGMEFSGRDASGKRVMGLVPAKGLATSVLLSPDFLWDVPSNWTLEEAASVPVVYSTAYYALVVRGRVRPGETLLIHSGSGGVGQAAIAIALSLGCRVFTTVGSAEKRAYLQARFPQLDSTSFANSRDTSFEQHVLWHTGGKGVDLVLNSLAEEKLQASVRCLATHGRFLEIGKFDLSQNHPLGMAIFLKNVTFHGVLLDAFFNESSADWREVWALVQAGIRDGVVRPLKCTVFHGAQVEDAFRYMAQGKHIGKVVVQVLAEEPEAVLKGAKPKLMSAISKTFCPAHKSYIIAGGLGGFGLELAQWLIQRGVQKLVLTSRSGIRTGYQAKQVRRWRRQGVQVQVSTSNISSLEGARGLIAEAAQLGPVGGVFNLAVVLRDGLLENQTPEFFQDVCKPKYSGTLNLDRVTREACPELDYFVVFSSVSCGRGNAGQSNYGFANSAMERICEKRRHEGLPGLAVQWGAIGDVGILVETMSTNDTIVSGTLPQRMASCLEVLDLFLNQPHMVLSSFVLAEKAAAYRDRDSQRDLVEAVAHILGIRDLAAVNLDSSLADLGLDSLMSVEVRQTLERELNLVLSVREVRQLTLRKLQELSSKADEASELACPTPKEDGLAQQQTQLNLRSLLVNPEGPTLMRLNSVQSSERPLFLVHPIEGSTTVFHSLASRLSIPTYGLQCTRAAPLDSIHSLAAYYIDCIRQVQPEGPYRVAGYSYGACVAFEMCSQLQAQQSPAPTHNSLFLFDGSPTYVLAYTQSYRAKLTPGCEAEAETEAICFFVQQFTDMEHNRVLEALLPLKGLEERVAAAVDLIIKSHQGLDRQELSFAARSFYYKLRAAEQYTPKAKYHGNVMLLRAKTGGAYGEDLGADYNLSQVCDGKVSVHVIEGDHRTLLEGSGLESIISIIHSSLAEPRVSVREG

[17] = target: T5, Fatty acid synthase; test: inhibition of human FAS-TE enzyme activity – biochemical, endpoint fluorescence intensity, uHTS hits, dose response (AID 624327); type: functional;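 note: fluorescence from hydrolysis of an O-methyl fluorescein acyl ester substrate by the enzyme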
[18] = target: T6, Long-chain-fatty-acid--AMP ligase FadD28 (Mycobacterium tuberculosis, UniProt P9WQ59); test: Fluorescence polarization aasay to screen for inhibitors that compete for the binding of FadD28 to a bisubstrate Measured in Biochemical System Using Plate Reader - 2147-01_Inhibitor_Dose_CherryPick_Activity.; type: functional, Mycobacterium tuberculosis H37Rv
T6 sequence (P9WQ59 whole entry): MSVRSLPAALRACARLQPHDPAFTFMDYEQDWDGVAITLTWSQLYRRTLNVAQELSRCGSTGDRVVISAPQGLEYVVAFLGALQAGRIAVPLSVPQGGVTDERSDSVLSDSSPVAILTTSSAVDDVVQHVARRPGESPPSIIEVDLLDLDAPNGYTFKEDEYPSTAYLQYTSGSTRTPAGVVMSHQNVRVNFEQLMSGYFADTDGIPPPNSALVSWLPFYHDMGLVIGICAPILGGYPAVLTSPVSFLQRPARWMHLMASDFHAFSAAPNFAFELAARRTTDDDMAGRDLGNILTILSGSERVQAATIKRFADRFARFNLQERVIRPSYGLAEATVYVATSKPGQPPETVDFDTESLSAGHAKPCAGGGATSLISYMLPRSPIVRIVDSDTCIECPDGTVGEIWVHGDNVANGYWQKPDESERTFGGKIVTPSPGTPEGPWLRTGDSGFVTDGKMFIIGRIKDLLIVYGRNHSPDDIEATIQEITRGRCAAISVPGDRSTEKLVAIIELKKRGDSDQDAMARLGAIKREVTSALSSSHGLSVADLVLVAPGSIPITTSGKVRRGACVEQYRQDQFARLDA

[19] = target: T7, Rac GTPase-activating protein 1 (Homo sapiens, UniProt Q9H0H5); test: blockers of MgcRacGAP-driven Rac1 GTP hydrolysis – biochemical, ADP Hunter fluorescence, primary and confirmatory, confirmation (AID 624330); type: functional
T7 sequence (Q9H0H5 whole entry): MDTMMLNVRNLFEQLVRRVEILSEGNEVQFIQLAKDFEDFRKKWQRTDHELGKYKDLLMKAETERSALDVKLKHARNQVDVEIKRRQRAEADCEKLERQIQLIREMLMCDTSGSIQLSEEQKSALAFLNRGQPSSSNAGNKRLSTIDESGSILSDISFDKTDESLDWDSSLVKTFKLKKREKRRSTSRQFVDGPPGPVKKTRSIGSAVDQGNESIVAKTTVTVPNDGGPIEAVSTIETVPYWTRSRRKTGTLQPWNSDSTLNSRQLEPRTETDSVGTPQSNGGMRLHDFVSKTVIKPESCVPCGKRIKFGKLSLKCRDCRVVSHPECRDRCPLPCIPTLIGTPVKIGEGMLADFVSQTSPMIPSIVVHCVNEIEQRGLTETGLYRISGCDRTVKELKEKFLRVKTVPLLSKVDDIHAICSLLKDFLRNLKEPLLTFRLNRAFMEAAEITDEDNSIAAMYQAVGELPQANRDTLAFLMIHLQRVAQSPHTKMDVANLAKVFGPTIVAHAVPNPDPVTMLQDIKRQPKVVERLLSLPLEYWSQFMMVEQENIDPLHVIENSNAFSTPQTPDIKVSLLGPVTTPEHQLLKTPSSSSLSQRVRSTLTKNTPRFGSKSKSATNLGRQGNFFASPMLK

[20] = viability loss in HeLa cells – cytotoxicity control for MgcRacGAP inhibitor project, dose response (AID 624300); type: functional
[21] = tested on: BJ; test: BJ-TERT-LT-ST fibroblast viability loss – cell-based, RAS-independent, luminescence, dose response (AID 1935); type: functional; details: Homo sapiens;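 note: BJ fibroblasts immortalized with TERT plus LT and ST oncogenes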
[22] = tested on: BJ; test: cells; type: functional, cell-based; details: Homo sapiens
[23] = tested on: BJ; test: BJ-TERT fibroblast viability loss – cell-based, RAS-independent, luminescence, dose response (AID 1933); type: functional; details: Homo sapiens
[24] = target: Luciferin 4-monooxygenase (Photinus pyralis, UniProt P08659); test: inhibition of purified Photinus pyralis luciferase – biochemical, luminescence, dose response (AID 1891)
Sequence of Luciferin 4-monooxygenase (P08659 whole entry): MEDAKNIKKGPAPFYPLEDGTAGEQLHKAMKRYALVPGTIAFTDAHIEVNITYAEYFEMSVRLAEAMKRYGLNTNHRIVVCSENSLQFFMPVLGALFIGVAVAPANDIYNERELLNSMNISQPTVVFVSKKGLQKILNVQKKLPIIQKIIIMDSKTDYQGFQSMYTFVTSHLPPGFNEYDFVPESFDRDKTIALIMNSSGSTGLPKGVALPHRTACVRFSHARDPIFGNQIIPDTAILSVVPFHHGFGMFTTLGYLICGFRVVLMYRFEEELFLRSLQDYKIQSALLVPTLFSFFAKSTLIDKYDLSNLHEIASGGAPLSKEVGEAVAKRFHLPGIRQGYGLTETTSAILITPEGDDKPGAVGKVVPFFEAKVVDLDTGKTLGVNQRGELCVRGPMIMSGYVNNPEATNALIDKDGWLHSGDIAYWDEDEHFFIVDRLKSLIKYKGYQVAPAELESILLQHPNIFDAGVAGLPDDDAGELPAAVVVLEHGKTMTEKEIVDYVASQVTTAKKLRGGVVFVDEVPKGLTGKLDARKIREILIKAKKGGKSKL

[25] = Luminescence Cell-Based Dose Confirmation HTS to Identify Inhibitors of Platelet Dense Granule Release. [Related pubchem assays: 1663 (Primary HTS), 1678 (Summary of Project)]; type: functional
[26] = DRD fibroblast viability loss – cell-based, non-viral oncogenic, luminescence, dose response (AID 1934); type: functional; details: Homo sapiens
[27] = target: Cytochrome P450 2D6 (Homo sapiens, UniProt P10635);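 note: CYP2D6 member of a cytochrome P450 panel assay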
Sequence of Cytochrome P450 2D6 (P10635 whole entry): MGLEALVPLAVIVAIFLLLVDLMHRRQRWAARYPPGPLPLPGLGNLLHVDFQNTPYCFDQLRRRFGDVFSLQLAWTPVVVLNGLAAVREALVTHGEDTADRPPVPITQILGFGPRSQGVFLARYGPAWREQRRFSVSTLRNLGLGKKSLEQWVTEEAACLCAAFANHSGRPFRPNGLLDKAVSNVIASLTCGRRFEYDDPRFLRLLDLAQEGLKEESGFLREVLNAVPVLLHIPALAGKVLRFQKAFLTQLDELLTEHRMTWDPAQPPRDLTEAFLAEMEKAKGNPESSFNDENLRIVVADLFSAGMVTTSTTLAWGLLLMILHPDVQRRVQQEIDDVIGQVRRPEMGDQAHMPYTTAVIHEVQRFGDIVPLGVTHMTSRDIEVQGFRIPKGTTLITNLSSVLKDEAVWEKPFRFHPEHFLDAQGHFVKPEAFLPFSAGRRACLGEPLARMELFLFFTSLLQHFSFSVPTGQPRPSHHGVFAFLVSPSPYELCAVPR

[28] = target: Cytochrome P450 3A4 (Homo sapiens, UniProt P08684);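 note: CYP3A4 tested as one member of a cytochrome P450 panel screen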
Sequence of Cytochrome P450 3A4 (P08684 whole entry): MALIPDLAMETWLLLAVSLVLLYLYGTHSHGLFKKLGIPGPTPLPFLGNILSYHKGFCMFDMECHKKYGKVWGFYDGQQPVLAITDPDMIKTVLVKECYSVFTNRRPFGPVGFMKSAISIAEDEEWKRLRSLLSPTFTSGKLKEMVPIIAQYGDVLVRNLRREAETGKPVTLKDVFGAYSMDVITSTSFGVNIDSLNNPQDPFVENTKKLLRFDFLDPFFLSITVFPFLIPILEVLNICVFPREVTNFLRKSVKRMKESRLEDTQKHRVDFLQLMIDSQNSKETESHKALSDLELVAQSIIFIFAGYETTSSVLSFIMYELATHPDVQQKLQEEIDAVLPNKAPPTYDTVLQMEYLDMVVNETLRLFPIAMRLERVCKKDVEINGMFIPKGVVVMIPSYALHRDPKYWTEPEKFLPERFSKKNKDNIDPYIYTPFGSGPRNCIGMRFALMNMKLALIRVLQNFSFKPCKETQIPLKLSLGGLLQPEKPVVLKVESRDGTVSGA

[29] = target: T8, Mitochondrial peptide methionine sulfoxide reductase (Bos taurus, UniProt P54149); test: Absorbance-based biochemical high throughput dose response assay for activators of Methionine sulfoxide reductase A (MsrA).; type: functional
T8 sequence (P54149 whole entry): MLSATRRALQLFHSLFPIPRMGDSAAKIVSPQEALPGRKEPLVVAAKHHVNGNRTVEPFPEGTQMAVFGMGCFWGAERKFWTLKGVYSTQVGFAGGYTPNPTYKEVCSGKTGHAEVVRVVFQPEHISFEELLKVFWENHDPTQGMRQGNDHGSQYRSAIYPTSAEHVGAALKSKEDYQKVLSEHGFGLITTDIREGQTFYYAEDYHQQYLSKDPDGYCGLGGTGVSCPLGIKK

## O=C(CCCN1C(=O)C(=Cc2ccc3c(c2)OCO3)SC1=S)Nc1ccc(C(=O)O)c(O)c1
[1]
  IC50: 80 µM (inactive)

## c1ccc(CCCN2CCN(CCOC(c3ccccc3)c3ccccc3)CC2)cc1
[2]
  AC50: 23.8 µM (active)

## C[C@H]1COc2c(N3CCN(C)CC3)c(F)cc3c(=O)c(C(=O)O)cn1c23 [LEVOFLOXACIN]
[3]
  EC50: 2.1 µM (active)
[4]
  EC50: 0.911 µM (active)
[5]
  AC50: 41 µM (active)

## CC(C)Oc1ccc(C(CC(=O)NCc2ccco2)c2ccccc2)cc1 (stereo not given)
[6]
  IC50: 11.6 µM (active)
[7]
  EC50: 4.77 µM (active)
[8]
  IC50: 16.4 µM (active)

## CCOc1ccc(-c2nn(-c3ccccc3)cc2/C=C2\SC(N)=NC2=O)cc1C
[9]
  AC50: 15.8 µM (inconclusive)
[10]
  EC50: > 79.4 µM (not active)
[11]
  EC50: > 79.4 µM (not active)
[12]
  AC50: inconclusive
[13]
  EC50: 8.58 µM (active)
[14]
  EC50: > 79.4 µM (not active)
[15]
  EC50: 8.6 µM (active)

## Cc1ccc(S(=O)(=O)/N=C(\Sc2ccccc2)c2ccccc2)cc1
[16]
  IC50: 54 µM (inactive)
[17]
  IC50: 11 µM (active)

## CCOC(=O)c1c(C)c(C(=O)N2CCCCCC2)c(C)n1C
[9]
  AC50: 25.1 µM (inconclusive)
[12]
  AC50: inconclusive

## CC(C)N(C)S(=O)(=O)c1ccc(NC(=O)CSC(=S)N2CCCC2)cc1
[18]
  AC50: > 100 µM (inactive)

## Cc1cc(N2CCN(c3nc(-c4ccccc4)cs3)CC2)c2ccccc2n1
[1]
  IC50: 9.27 µM (active)

## CC1(C)Cc2c(sc(NC(=S)NC(=O)c3ccccc3)c2C(=O)O)CO1
[6]
  IC50: 13.1 µM (active)
[8]
  IC50: 21.1 µM (inactive)

## CCN(CC)c1ccc(Nc2nc(Cl)ncc2Br)cc1
[19]
  IC50: 50.3 µM (active)
[20]
  CC50: 100 µM (active)

## O=C(COC(=O)c1cc([N+](=O)[O-])ccc1NCCO)NCc1cccs1
[16]
  IC50: 1.68 µM (active)
[17]
  IC50: 3.84 µM (active)

## CC(Cc1ccccc1)=NNS(=O)(=O)c1ccc([N+](=O)[O-])cc1
[16]
  IC50: 12.7 µM (active)
[17]
  IC50: 9.15 µM (active)

## Cn1c(/C=C/c2ccccc2)nc2ccccc21
[21]
  EC50: 18.9 µM (active)
[22]
  EC50: 7.95 µM (active)
[23]
  EC50: 10.8 µM (active)
[24]
  EC50: 1.09 µM (active)
[2]
  AC50: 3.81 µM (active)
[25]
  EC50: 1.89 µM (active)
[26]
  EC50: 8.49 µM (active)

## COc1ccc(C2=NOC(C(=O)N3CCCc4ccccc43)C2)cc1 (stereo not given)
[27]
  AC50: 20 µM (inconclusive)
[28]
  AC50: 12.6 µM (inconclusive)
[12]
  AC50: inconclusive

## CCn1cc(C(=O)O)c(=O)c2cc(F)c(N3CCN(C(=S)Nc4ccc(OC)cc4)CC3)cc21
[1]
  IC50: 73.8 µM (inactive)

## CC(C)COC(=O)c1ccc(N2C(=O)c3ccccc3C2=O)cc1
[6]
  IC50: 66.5 µM (inactive)
[29]
  EC50: > 104 µM (inactive)
[8]
  IC50: 16.2 µM (active)

## COCCCNC(=O)C1CCN(S(=O)(=O)N(CC(C)C)CC(C)C)CC1
[28]
  AC50: 22.4 µM (inconclusive)
[12]
  AC50: inconclusive
